Target: rat acyl CoA cholesterol acyltransferase
Assay: Inhibitory action on rat acyl CoA cholesterol acyltransferase (rat liver microsome crude enzyme, [1-14C]oleoyl-CoA)
Format: biochemical
Conditions: rat liver microsome fraction, pH 7.4, 37° C., 30 minutes, 30 μM oleoyl-CoA, 30 μM cholesterol; read-out: IC50 (50% inhibition concentration on the enzyme)
Method: An inhibitory action of the FO-1289 substance for acyl CoA cholesterol acyltransferase is tested according to the method of Kyoda et al. (J. Antibiotics, 44: 136 1991). A crude enzyme prepared from rat liver microsome fraction is added in the 100 mM phosphate buffer solution (pH 7.4) […] containing 300 μM bovine serum albumin. 30 μM (1-^14 C ) oleoyl-CoA (0.02 μCi) and 30 μM cholesterol (solubilized with 1/30 w/w Triton WR-1339) and incubaatd at 37° C. for 30 minutes. Total lipid is extracted with a mixture of chloroform-methanol (2:1), then each lipid is separated by thin layer chromatography (Kiesel gel GF254, developer:petroleum ether--diethyl ether--acetic acid=90:10:1). Radioactivity incorporated in the cholesterol ester fraction is analysed by RI scanner (Ambis Corp.) to assay an activity of acyl CoA cholesterol acyltransferase.

| SMILES | IC50 [nM] |
| --- | --- |
| CC(=O)OCC1(C)C(OC(C)=O)CCC2(C)C1CC(OC(C)=O)C1(C)Oc3cc(-c4cccnc4)oc(=O)c3C(O)C21 (stereo not shown) [FO-1289A] | 40 |
| CCC(=O)OCC1(C)C(OC(C)=O)CCC2(C)C1CC(OC(C)=O)C1(C)Oc3cc(-c4cccnc4)oc(=O)c3C(O)C21 (stereo not shown) [FO-1289B] | 100 |
| CCC(=O)OC1CC2C(C)(COC(C)=O)C(OC(C)=O)CCC2(C)C2C(O)c3c(cc(-c4cccnc4)oc3=O)OC12C (stereo not shown) [FO-1289C] | 30 |
| CCC(=O)OC1CCC2(C)C(CC(OC(C)=O)C3(C)Oc4cc(-c5cccnc5)oc(=O)c4C(O)C23)C1(C)COC(C)=O (stereo not shown) [FO-1289D] | 150 |

From patent US5807721A, “Compound FO-1289, process of production with aspergillus and strain” (The Kitasato Institute, priority 1992, dated 1998)
